{"source": "ChEMBL document CHEMBL1201862", "about": "“PubChem BioAssay data set” (2004)", "key": {"Escherichia coli": {"tested_on": "Escherichia coli", "assay": "microbe, parasite or virus in culture"}, "[1]": {"biological_target": "Delta-type opioid receptor (Homo sapiens, UniProt P41143)", "sequence (P41143 whole entry)": "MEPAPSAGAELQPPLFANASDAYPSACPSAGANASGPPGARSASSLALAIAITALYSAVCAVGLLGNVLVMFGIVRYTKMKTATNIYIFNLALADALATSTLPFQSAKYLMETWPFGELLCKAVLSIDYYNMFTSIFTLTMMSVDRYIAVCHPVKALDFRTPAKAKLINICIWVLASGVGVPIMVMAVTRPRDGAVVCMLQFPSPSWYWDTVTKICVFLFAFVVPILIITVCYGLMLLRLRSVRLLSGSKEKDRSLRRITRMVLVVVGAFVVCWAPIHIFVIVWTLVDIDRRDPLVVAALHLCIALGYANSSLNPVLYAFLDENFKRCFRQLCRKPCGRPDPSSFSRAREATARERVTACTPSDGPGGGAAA", "assay": "Counterscreen for agonists of heterodimerization of the mu 1 (OPRM1) and delta 1 (OPRD1) opioid receptors: Luminescence-based cell-based high throughput dose response assay to identify agonists of OPRD1 homodimerization. [Related pubchem assays (depositor defined):AID504326, AID504355, AID504692, AID504904, AID504905]", "type": "functional"}, "[2]": {"biological_target": "T1, Heat shock factor protein 1 (Mus musculus, UniProt P38532)", "T1 sequence (P38532 whole entry)": "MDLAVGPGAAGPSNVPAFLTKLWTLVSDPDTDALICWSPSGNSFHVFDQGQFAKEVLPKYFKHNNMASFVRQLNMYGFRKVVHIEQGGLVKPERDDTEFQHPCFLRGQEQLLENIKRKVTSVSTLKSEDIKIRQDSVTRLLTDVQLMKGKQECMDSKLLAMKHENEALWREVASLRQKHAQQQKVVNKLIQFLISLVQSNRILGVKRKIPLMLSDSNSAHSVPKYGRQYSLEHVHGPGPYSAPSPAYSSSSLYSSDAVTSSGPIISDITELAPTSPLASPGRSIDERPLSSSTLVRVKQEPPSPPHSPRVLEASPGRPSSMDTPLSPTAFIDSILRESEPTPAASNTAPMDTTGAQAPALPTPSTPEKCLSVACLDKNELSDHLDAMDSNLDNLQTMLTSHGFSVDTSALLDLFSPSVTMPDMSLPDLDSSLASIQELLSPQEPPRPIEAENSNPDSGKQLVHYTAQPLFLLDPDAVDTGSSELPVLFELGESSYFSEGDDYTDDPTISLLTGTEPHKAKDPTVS", "assay": "inhibition of MG132-induced HSE-luciferase signal, confirmation, cell-based, NIH3T3, luminescence, dose retest (AID 2382);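 further: NIH3T3 fibroblasts with HSF1-driven luciferase reporter stressed by proteasome inhibitor MG132; luminescence from HSF1-driven luciferase expression after 8 hours of MG132 stress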", "type": "functional"}, "Cytochrome P450 1A2": {"biological_target": "T2, Cytochrome P450 1A2 (Homo sapiens, UniProt P05177)", "T2 sequence (P05177 whole entry)": "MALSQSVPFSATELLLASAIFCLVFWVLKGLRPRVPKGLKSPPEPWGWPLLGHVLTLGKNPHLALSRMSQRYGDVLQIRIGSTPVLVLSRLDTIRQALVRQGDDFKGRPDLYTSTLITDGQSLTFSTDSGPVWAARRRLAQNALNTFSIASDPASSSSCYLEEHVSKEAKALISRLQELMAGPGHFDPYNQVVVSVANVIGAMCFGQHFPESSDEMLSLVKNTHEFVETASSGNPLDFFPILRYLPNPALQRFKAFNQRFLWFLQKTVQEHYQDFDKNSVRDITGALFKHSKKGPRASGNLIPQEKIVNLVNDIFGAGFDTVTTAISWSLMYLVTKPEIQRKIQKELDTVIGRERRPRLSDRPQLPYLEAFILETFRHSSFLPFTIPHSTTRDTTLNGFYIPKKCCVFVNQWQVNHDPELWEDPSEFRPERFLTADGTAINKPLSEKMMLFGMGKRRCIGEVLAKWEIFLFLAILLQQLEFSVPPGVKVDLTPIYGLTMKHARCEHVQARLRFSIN"}, "Mu-type opioid receptor": {"biological_target": "Mu-type opioid receptor (Homo sapiens, UniProt P35372)", "sequence (P35372 whole entry)": "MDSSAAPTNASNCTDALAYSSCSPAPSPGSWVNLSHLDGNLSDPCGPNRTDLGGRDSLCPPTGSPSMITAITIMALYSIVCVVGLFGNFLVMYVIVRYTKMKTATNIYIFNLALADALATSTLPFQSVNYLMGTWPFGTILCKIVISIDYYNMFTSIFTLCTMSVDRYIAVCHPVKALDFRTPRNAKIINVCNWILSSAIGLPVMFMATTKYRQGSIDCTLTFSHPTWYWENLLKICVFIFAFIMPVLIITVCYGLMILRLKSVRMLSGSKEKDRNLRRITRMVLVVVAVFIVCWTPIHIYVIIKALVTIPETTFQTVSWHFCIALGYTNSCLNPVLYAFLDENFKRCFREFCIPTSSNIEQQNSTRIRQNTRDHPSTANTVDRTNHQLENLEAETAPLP", "assay": "Counterscreen for agonists of heterodimerization of the mu 1 (OPRM1) and delta 1 (OPRD1) opioid receptors: Luminescence-based cell-based high throughput dose response assay to identify agonists of OPRM1 homodimerization.", "type": "functional"}, "[3]": {"assay": "HEp-2 cell cytotoxicity, dose response, cytotoxicity control for RSV inhibitor project, HTS (AID 2410)", "type": "functional", "conditions": "human respiratory syncytial virus"}, "[4]": {"biological_target": "5-hydroxytryptamine receptor 5A (Homo sapiens, UniProt P47898)", "sequence (P47898 whole entry)": "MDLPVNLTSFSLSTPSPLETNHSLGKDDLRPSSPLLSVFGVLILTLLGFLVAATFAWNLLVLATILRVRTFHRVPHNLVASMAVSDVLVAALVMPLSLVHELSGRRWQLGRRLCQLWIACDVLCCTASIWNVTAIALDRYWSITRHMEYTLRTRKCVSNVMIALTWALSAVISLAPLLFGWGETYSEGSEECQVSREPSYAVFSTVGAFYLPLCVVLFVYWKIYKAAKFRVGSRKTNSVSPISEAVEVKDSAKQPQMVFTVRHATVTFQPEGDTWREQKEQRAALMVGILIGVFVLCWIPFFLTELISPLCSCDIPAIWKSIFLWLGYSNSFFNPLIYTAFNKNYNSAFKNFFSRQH", "assay": "Counterscreen for agonists of OPRM1-OPRD1 heterodimerization: luminescence-based cell-based high throughput dose response assay to identify agonists of 5-hydroxytryptamine (serotonin) 5A receptor (HTR5A). [Related pubchem assays (depositor defined):AID504326, AID504355, AID504692, AID504904, AID504905]", "type": "functional"}, "[5]": {"biological_target": "Beta-2 adrenergic receptor (Homo sapiens, UniProt P07550)", "sequence (P07550 whole entry)": "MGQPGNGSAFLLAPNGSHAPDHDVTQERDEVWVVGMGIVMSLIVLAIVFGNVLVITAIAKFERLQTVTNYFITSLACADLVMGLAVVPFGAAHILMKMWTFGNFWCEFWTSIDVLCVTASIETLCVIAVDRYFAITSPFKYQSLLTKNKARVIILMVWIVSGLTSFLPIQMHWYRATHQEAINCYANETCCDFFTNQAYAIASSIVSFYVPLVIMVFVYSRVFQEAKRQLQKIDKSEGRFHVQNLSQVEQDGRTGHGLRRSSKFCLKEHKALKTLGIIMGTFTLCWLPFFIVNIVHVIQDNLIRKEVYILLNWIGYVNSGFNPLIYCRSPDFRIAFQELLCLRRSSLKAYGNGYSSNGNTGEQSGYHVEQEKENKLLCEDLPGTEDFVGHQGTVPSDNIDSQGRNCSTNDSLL", "assay": "beta2AR agonists driving receptor internalization, dose response, cell-based, FAP fluorogen, flow cytometry, cherry pick 1 (AID 588763)", "type": "functional"}, "[6]": {"biological_target": "T1, Heat shock factor protein 1", "assay": "HSF1 potentiators in luciferase reporter cells, confirmation, cell-based, NIH3T3, luminescence, dose retest (AID 435004);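 further: stress induced by proteasome inhibitor MG132 added 30 min after compound; actives raise luminescence as potentiators of the MG132 stress response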", "type": "functional"}, "Vero": {"tested_on": "Vero", "assay": "cells", "type": "functional", "conditions": "Chlorocebus sabaeus"}, "[7]": {"biological_target": "T3, Ubiquitin-conjugating enzyme E2 N (Homo sapiens, UniProt P61088)", "T3 sequence (P61088 whole entry)": "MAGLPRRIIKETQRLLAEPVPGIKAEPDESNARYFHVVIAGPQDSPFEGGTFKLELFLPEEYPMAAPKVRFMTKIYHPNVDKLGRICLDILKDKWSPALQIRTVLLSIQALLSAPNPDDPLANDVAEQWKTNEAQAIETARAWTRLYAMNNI", "type": "functional"}, "[8]": {"biological_target": "Dual specificity tyrosine-phosphorylation-regulated kinase 1A (Rattus norvegicus, UniProt Q63470)", "type": "biochemical, Homo sapiens"}, "[9]": {"biological_target": "T4, Short transient receptor potential channel 4 (Mus musculus, UniProt Q9QUQ5)", "T4 sequence (Q9QUQ5 whole entry)": "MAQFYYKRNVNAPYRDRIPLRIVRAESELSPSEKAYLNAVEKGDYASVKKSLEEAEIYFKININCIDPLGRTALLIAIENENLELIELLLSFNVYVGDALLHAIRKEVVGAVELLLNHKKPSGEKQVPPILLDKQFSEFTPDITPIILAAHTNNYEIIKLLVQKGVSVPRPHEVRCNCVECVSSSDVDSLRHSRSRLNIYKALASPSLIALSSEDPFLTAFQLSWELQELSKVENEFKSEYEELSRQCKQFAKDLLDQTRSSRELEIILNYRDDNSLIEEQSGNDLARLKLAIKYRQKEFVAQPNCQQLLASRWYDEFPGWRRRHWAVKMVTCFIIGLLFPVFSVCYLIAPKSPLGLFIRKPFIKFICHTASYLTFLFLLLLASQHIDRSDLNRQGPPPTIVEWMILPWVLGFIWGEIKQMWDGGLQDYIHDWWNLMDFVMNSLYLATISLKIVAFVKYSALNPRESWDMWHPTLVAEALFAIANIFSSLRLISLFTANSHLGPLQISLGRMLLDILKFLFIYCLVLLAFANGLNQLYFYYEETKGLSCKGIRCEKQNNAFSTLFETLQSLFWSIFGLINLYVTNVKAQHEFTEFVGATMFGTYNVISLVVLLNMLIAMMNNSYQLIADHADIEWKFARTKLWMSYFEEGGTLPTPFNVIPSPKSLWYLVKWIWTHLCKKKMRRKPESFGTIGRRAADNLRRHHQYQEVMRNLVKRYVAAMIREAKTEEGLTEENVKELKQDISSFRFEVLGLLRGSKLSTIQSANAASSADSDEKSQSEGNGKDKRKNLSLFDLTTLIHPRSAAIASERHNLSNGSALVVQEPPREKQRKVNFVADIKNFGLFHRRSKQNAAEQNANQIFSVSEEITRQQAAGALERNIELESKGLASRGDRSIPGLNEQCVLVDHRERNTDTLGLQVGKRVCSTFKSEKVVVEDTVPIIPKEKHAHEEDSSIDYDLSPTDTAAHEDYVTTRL", "assay": "mouse TRPC4 channel activators, dose response, cell-based, HEK293 TRPC4/mu-opioid, Fluo-4 calcium (AID 434937)", "type": "functional"}}, "note": "Calls of active or inactive are those of the source.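 Wherever IC50 is given: Dose-response confirmation in a TR-FRET assay detecting UBC13-driven polyubiquitin chain formation, inhibition measured.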"}
{"compound": "COc1ccc(S(=O)(=O)N2CCC(C(N)=O)CC2)cc1", "values": [{"measurement": "AC50", "setting": "Escherichia coli", "result": "38.3 µM (active)"}]}
{"compound": "CC(C)c1ccc(NC(=O)N(CCc2nc3ccccc3[nH]2)C2CCCC2)cc1", "values": [{"measurement": "EC50", "setting": "[1]", "result": "> 92.4 µM (inactive)"}, {"measurement": "EC50", "setting": "[2]", "result": "> 195 µM (not active)"}, {"measurement": "AC50", "setting": "Cytochrome P450 1A2", "result": "11.2 µM (inconclusive)"}, {"measurement": "EC50", "setting": "Mu-type opioid receptor", "result": "> 92.4 µM (inactive)"}, {"measurement": "CC50", "setting": "[3]", "result": "35.4 µM (active)"}, {"measurement": "EC50", "setting": "[4]", "result": "> 92.4 µM (inactive)"}]}
{"compound": "O=C(CSc1nnc(-c2ccncc2)n1Cc1ccco1)N1c2ccccc2Sc2ccc(Cl)cc21", "values": [{"measurement": "EC50", "setting": "[5]", "result": "0.343 µM (active)"}, {"measurement": "EC50", "setting": "[6]", "result": "27.3 µM (active)"}]}
{"compound": "Cc1cccc(Nc2cc(C)c3c(O)cccc3n2)c1C", "values": [{"measurement": "CC50", "setting": "Vero", "result": "> 25 µM (active)"}, {"measurement": "IC50", "setting": "[7]", "result": "> 20 µM (inactive)"}, {"measurement": "AC50", "setting": "[8]", "result": "1.13 µM (active)"}]}
{"compound": "CC(=O)Nc1ccc(-c2nnc(SCc3ccc(C)cc3)n2C)cc1", "values": [{"measurement": "EC50", "setting": "[5]", "result": "3.6 µM (active)"}]}
{"compound": "CN(C)C(CNC(=O)Cc1ccc(Br)cc1)c1ccccc1", "note": "(configuration not stated)", "values": [{"measurement": "EC50", "setting": "[1]", "result": "36.1 µM (inactive)"}, {"measurement": "EC50", "setting": "Mu-type opioid receptor", "result": "> 92.5 µM (inactive)"}, {"measurement": "EC50", "setting": "[4]", "result": "> 92.5 µM (inactive)"}, {"measurement": "EC50", "setting": "[9]", "result": "0.105 µM (active)"}]}
